Assay results as given in patent publication US10406098B2, “Injection solution comprising a non-nucleoside reverse-transcriptase inhibitor and poly(lactide-co-glycolide)” (Evonik Roehm GmbH, priority 2015, dated 2019).

Experiment: Release test in phosphate buffer saline pH 7.4 (standard body-fluid single compartment release experiment)
Format: physicochemical
Conditions: PBS pH 7.4, samples at 0, 1, 2, 4, 24 and 96 hours, HPLC; comparative statement
Experimental: Example Performance in a standard body-fluid single compartment release experiment Release Test: 100 ml of phosphate buffer saline pH 7.4 (PBS, British Pharmacopoeia) are given to a 200 ml volumetric flask. […] PBS-buffer is filled up to 200 ml. API release studies were performed in triplicate. Samples (2 ml) for HPLC analysis were taken at 0, 1, 2, 4, 24 and 96 hours and centrifuged for 5 minutes at 13400 rpm the supernatant was injected according to the HPLC method in Table 5. At 2, 4 and 24 hours 100 ml of the dissolution medium were pulled and 100 ml of fresh buffer was added (PBS 7.4). [table]

## O=C1Nc2ccc(Cl)cc2[C@@](C#CC2CC2)(C(F)(F)F)O1 [Efavirenz]
  release / release rate of the active ingredient: much higher
